In patent US9555086B2, “Compositions and methods for inducing an immune response” (The Regents of the University of Michigan, priority 2010, dated 2017):
“Also recorded” adds a separate entry of the source. Each block holds one molecule with its values, some of them ahead of it. Numbered stars: 1 amine (or outer) side, 2 acyl side, 3 side chain; on linkers, the order of the positions; unused ones are H or OH. Bridge positions count the residues as written; N and C are the ends. Square brackets hold non-standard residues; d marks the D form. Ends that are not written are not given here. Peptide text beside a SMILES is read from it. CO = O=C([*:1])[*:2]; Nlys = NCCCCNCC(=O)O

How the values were obtained:
[1] = system: antioxidative signaling pathway; conditions: read-out: IC50 as activator of antioxidative signaling pathway; cited from earlier work
[2] = system: trypsin and chymotrypsin; test: Trypsin/chymotrypsin stability assay
[3] = system: trypsin and chymotrypsin; conditions: pH 8
[4] = system: CD8+ and CD8− DC; test: Cytokine production by splenic DC subsets (Luminex); type: cell-based, mouse; conditions: CD11c+CD8− DCs; 50 μg/ml peptide
Protocol: Splenic CD8+ and CD8− DC were isolated from DBA/1 mice as above and cultured in 96-well plates over time in the presence or absence of ISL-positive (65-79*0401) or ISL-negative (65-79*0402) peptides (50 μg/ml). At various time points thereafter, supernatants were collected and assayed for cytokine content, using the Luminex platform.
DBA/1 splenic unfractionated CD11c+ DCs (CD11c+), or their purified CD11c+CD8+ DCs (CD8+) or CD11c+CD8− DCs (CD8−) subsets were cultured with the ISL 65-79*0401 or ISL-negative control 65-79*0402 or medium. Supernatants were collected at different time points and assayed for cytokine content using a Luminex platform.
To determine the rate of NO production, cells were loaded with 20 μM of the fluorescent NO probe 4,5-diaminofluorescein diacetate (DAF-2DA) and the fluorescence level was recorded every 5 minutes over a period of 500 minutes using a Fusion αHT system (PerkinElmer Life Sciences) at an excitation wavelength of 488 nm and emission wavelength of 515 nm. To determine IDO enzymatic activity, the generation of its product, kynurenine was measured (Takikawa et al. 1988. J Biol Chem 263:2041-2048.; herein incorporated by reference in its entirety). Cytokine concentrations were measured in cell culture supernatants using a Luminex platform (Millipore Corporation, Danvers, Mass.). In some experiments, cytokines were determined using ELISA (Quantikine®, R&D Systems, Minneapolis, Minn.) following the manufacture's instruction.

[5] = system: Th17 cells; test: ISL polarizing effect in vivo (CII in CFA immunization); parameters: species or system DBA/1 mice; conditions: 10 μg co-administered with CII in CFA, footpad; day 7
Protocol: (A) DBA/1 mice were immunized with CII in CFA in the presence of PBS, 65-79*0401 or 65-79*0402. On day 7, cells from draining lymph nodes were isolated, cultured for 6 hours with PMA, Ionomycin and Brefeldin A and then stained with anti-mouse CD4, IL17A and IFN-γ as above. On the left: Representative dot plots showing percentages of IL17A+ and IFN-γ+ cells obtained from gated CD4+ cells. On the right, bar graphs showing results as mean±SD of duplicate experiments. (B) DBA/1 and CII-TCR Tg mice were immunized as in (A). On day 7, splenic cells were isolated and cultured with the synthetic peptide CII260-267 (5 μg/ml). Supernatants were collected every 24 hours and assayed for IL-17 levels by ELISA.
Mice were injected subcutaneously in the footpad with 100 μg of chicken collagen type II (CII) (Chondrex, Inc, Redmond, Wash.) emulsified in CFA (4 mg/ml). The inoculums contained 10 μg of either ISL-positive 65-79*0401 or ISL-negative 65-79*0402 ligands in PBS, or an equal volume of PBS alone. Animals were sacrificed 7 days after immunization. For Th17 quantification studies, inguinal and popliteal lymph nodes were collected and single cell suspensions were prepared. Unfractionated lymph node cells were cultured with PMA, Ionomycin and Brefeldin A for 6 hours as above. Cells were stained with FITC anti-mouse CD4 or isotype controls, followed by fixation and permeabilization using a Cytofix-Cytoperm™ kit. After permeabilization, intracellular staining was performed using PE-conjugated anti-mouse IL17A and APC-conjugated anti-mouse IFN-γ and cells were analyzed by flow cytometry as above. To measure IL-17 production, splenocytes from mice immunized as above were stimulated in vitro with 5 μg of CII259-273 peptide. At different time points thereafter, supernatants were collected and assayed for IL-17 by ELISA as above.

[6] = system: Human fibroblast M1 cells; test: Nitric Oxide Assay in human fibroblast M1 cells; type: cell-based
Protocol: FIGS. 17A and 17B show dose-response experiments of NO production rate induced by cyclic analogs. Human M1 fibroblasts were incubated with different concentrations of the listed cyclic peptides, or with 50 μM of positive (65-79*0401) or negative (65−79*0402) control peptides. NO production rates were determined using the fluorescent probe 4,5-diaminofluorescein diacetate (DAF-2DA) (See Ling et al., Arthritis Res Ther 2007, 9, R5; Ling et al., J. J Immunol 2007, 179, 6359; Ling et al., Arthritis Rheum 2006, 54, 3423).
Nitric Oxide Assay. Human fibroblast M1 cells were plated at a density of 1×10^5 cells per well in 96-well plates the day prior to the Nitric Oxide assay. To determine the rate of NO production in fibroblast, cells were first loaded with 20 μM of the fluorescent NO probe 4,5-diaminofluorescein diacetate (DAF-2DA), incubated in the dark at 37° C. for 1 hour and washed in 100 μL of DMEM/phenol red-free medium. The fluorescence level was recorded every 5 minutes over a period of 500 minutes, using a Fusion αHT system (PerkinElmer Life Sciences) at an excitation wavelength of 488 nm and emission wavelength of 515 nm. The NO production rate is expressed as the mean±SEM fluorescence units per minute.

Molecule: C=C(C)CCOP(=O)(O)OP(=O)(O)O [IPP, Isopentenyl diphosphate]
IC50 [1]: 0.017 nM

stability towards trypsin/chymotrypsin degradation (HPLC) ([2]; 4 hours of incubation, 37° C., pH 8): completely stable | cleavage fragments in MS analysis ([2]; after trypsin/chymotrypsin incubation): no fragments were observed
Molecule: C[C@H](NC(=O)CN1CCCCNC(=O)NCCCCN(C(=O)[C@@H](N)Cc2c[nH]c3ccccc23)CC(=O)N[C@@H](CCC(N)=O)C(=O)N[C@@H](CCCCN)C(=O)N[C@@H](CCCNC(=N)N)C1=O)C(N)=O [c(HS4-4)] (H-W[Nlys]QKR[Nlys]A-NH2; linker 2-6 via CO)

degradation by trypsin/chymotrypsin (HPLC) [3]: degraded completely
Molecule: H-KDLLEQRRAAVDTYC-NH2 [65-79*0404]

Molecule: H-Lys-Asp-Ile-Leu-Glu-Asp-Glu-Arg-Ala-Ala-Val-Asp-Thr-Tyr-Cys-NH2 (H-KDILEDERAAVDTYC-NH2) [65-79*0402, reference compound]
IL-6 production [4]: did not trigger any increased production; also recorded: did not trigger any cytokine production | Th17 abundance in draining lymph nodes [5]: no effect

Molecule: c(HS6-2): cyclic analog named only in b214; probably a misprint of c(HS2-4) (QRRAA; bridge (positions not given here) via CO; also: urea backbone cyclisation, places not given here)
potency in activating NO production (in words) [6]: potent analogs
